# Tests used:
# [1] = system: obesity and metabolic diseases-related genes in visceral fat tissue; assay: RT-PCR of obesity and metabolic diseases-related genes, visceral fat tissue; format: in vivo, mouse; details: odor component-supplemented group to the HFD control group
# Protocol: (§1) After adding 1 mL of Trizol agent (Invitrogen, USA) per 0.1 g of visceral fat or liver tissues, the mixture was homogenized and centrifuged at 12,000×g for 10 min at 4° C. The supernatant was transferred to a new tube and 200 μl of chloroform was added to the tube, followed by vortexing. The same procedure was repeated twice and then the supernatant was transferred to a new tube, followed by addition of isopropanol and the supernatant at 1:1 ratio. The mixture was vigorously shaken 10 times and then incubated for 10 min at room temperature, followed by centrifugation at 12,000×g for 10 min at 4° C. to remove the supernatant. After adding 1 mL of 70% ethanol to the remaining pellet, it was centrifuged at 7,500×g for 5 min at 4° C. After removing the ethanol, the RNA pellet contained in the tube was dried for 5 min at 4° C. and dissolved in nuclease-free water. The RNA sample concentration was measured at a wavelength of 260 nm and 280 nm using a UV/VIS spectrophotometer (Beckman coulter, DU730) and the integrity of RNA sample was verified by agarose gel electrophoresis. The RNA sample obtained from the visceral fat or liver tissues was trasnscribed using oligo dT primer and reverse transcriptase (GIBCO BRL, Gaithersburg, Md., USA) to synthesize cDNA. The PCR amplification was performed using the cDNA as templates and primers complementary to cDNA [NT] flanking sequence. 1 μl of the amplified products were resolved on agarose gel electrophoresis to verify DNA band.
# [2] = system: olfactory receptors in liver tissue; assay: OligoDNA microarray, liver tissue of HFD mice fed odor components; format: in vivo, mouse; details: supplemented to HFD-fed mouse 10 weeks
# Excerpt: (§2) The obesity-inducing control diet used in the test was high-fat diet (HFD: 40% fat calorie, 17 g lard+3% corn oil/100 g diet). Diets supplemented with an odor component had the same composition as HFD, except that each of various types of odor components (indol-3-carbinol, oleuropein, cedryl acetate, α-cedrene and piperine) having anti-obesity efficacy was contained in 0.02-0.05% concentration. Indo)-3-carbinol, oleuropein, cedryl acetate, a-cedrene and piperine were purchased from Sigma-Aldrich.
# (§3) After adding Trizol agent to visceral fat or liver tissue, the mixture was homogenized and centrifuged at 12,000×g for 10 min at 4° C. The supernatant was transferred to a new tube to remove fat layer. Then, 200 μl of chloroform was added to the tube, followed by vortexing. The same procedure was repeated twice and then the supernatant was transferred to a new tube, followed by addition of isopropanol and the supernatant at 1:1 ratio. The mixture was vigorously shaken 10 times and then incubated for 10 min at room temperature, followed by centrifugation at 12,000×g for 10 min at 4° C. to remove the supernatant. After adding 1 mL of 70% ethanol to the remaining pellet, it was centrifuged at 7,500×g for 5 min at 4° C. After removing the ethanol, the RNA pellet contained in the tube was dried for 5 min at 4° C. and dissolved in nuclease-free water. The RNA sample concentration was measured at a wavelength of 260 nm and 280 nm using a UV/VIS spectrophotometer (Beckman coulter, DU730) and the integrity of RNA sample was verified by agarose gel electrophoresis.
# (§4) DNA microarry analysis using RNAs of visceral fat and liver tissue was conducted by GENOCHECK (CO., LTD.). RNA samples were pooled from 10 mice in each experimental group and subjected to microarray experiments in triplicate for the test of reproducibility. NimbleGen Mouse Whole Oligo 12-plex chip used in this experiment was prepared by triplicating 42,576 genes using Mouse Genome Build 8 as database. In NimbleGen mouse Whole Oligo 12-plex chip, 137,090 spots excluded control group gene were spotted by 16 μm×16 μm size in 17.4 mm×13 mm size. 42,576 oligo included […] genes which are known their functions and 5,431 transcripts and EST sequences which are unknown their functions. 10-50 μg of total RNA was added in oligo-dT primer, reverse transcriptase, dNTP, Cy3-dUTP and Cy5-dUTP, and reverse-transcripted according to the kit manufacturer's recommendations. The resultant was purified using cartridge, dried and dissolved in hybridization buffer solution (30 μL). The microarray was placed in hybridization cassette, heated at 95-100° C. for 5 min, mixed independently to each of RNA labeled with Cy3 and Cy5, and hybridized at 45° C. for 18 hrs. The slide was washed twice in solution containing 1×SSC and 0.1% SDS for 5 min, washed in 1×SSC for 5 min and dried to analyze.
# (§5) The profile for olfactory receptors in which the expression was regulated by more than 2-fold change due to intake of odor components at each tissue was shown in Tables 5. As a result, it was determined that various types of odor components having anti-obesity efficacy regulated a plurality of olfactory receptors in peripheral tissues.
# [3] = system: CREB (cAMP-responsive element binding protein); assay: Western blotting, protein phosphorylation of CREB; format: in vivo, mouse; details: odor component-supplemented group to the HFD control group
# Protocol: (§6) A certain amount of visceral fat or liver tissues in mortar was homogenized with liquid nitrogen and cell lysis buffer. The mixture was transferred to a new tube, followed by vortexing. After centrifugation at 13,000×g for 20 min at 4° C., the middle layer of the tube was obtained and proteins were quantified by Bradford method. 50 μg of protein was electrophorized to SDS polyacrylamide gel, followed by electroblotting to PVDF hyper film. The protein was reacted using an appropriate antibody for the protein and detected by ECL, whereby insulin resistance, adipocyte differentiation, lipid metabolism or energy consumption-related mechanism of phytochemical components was investigated in the protein level.
# (§7) In order to verify this, protein phosphorylations of HSL (hormone sensitive lipase), CREB (cAMP-responsive element binding protein) and AKT (v-akt murine thymoma viral oncogene) were evaluated by western blotting analysis.
# [4] = system: HSL (hormone sensitive lipase); assay: Western blotting, protein phosphorylation of HSL; format: in vivo, mouse; details: odor component-supplemented group to the HFD control group
# Protocol: as §6, §7
# [5] = system: obesity and metabolic diseases-related genes in liver tissue; assay: RT-PCR of obesity and metabolic diseases-related genes, liver tissue; format: in vivo, mouse; details: odor component-supplemented group to the HFD control group
# Protocol: as §1
# [6] = system: olfactory receptors in visceral fat and liver tissues; assay: OligoDNA microarray, visceral fat and liver tissues of HFD mice fed odor components (tissue not separated in text); format: in vivo; details: supplemented to mouse fed high-fat diet for 10 weeks
# Excerpt: as §2, §3, §4, §5
# [7] = system: AKT (v-akt murine thymoma viral oncogene); assay: Western blotting, protein phosphorylation of AKT; format: in vivo, mouse; details: odor component-supplemented group to the HFD control group
# Protocol: as §6, §7
# [8] = system: olfactory receptors in visceral fat tissue; assay: OligoDNA microarray, visceral fat tissue of HFD mice fed odor components; format: in vivo, mouse; details: supplemented to HFD-fed mouse 10 weeks
# Protocol: DNA microarry analysis using RNAs of visceral fat and liver tissue was conducted by GENOCHECK (CO., LTD.). RNA samples were pooled from 10 mice in each experimental group and subjected to microarray experiments in triplicate for the test of reproducibility. NimbleGen Mouse Whole Oligo 12-plex chip used in this experiment was prepared by triplicating 42,576 genes using Mouse Genome Build 8 as database. In NimbleGen mouse Whole Oligo 12-plex chip, 137,090 spots excluded control group gene were spotted by 16 μm×16 μm size in 17.4 mm×13 mm size. 42,576 oligo included 137,145 genes which are known their functions and 5,431 transcripts and EST sequences which are unknown their functions. 10-50 μg of total RNA was added in oligo-dT primer, reverse transcriptase, dNTP, Cy3-dUTP and Cy5-dUTP, and reverse-transcripted according to the kit manufacturer's recommendations. The resultant was purified using cartridge, dried and dissolved in hybridization buffer solution (30 μL). The microarray was placed in hybridization cassette, heated at 95-100° C. for 5 min, mixed independently to each of RNA labeled with Cy3 and Cy5, and hybridized at 45° C. for 18 hrs. The slide was washed twice in solution containing 1×SSC and 0.1% SDS for 5 min, washed in 1×SSC for 5 min and dried to analyze.
compound,measurement,setting,value
O=C(/C=C/C=C/c1ccc2c(c1)OCO2)N1CCCCC1 [piperine],"C/EBPα gene expression, decrease (change rate)",[1],35% decrease
same,"CPT1 gene expression, increase (change rate)",[1],75% increase^
same,"FAS gene expression, decrease (change rate)",[1],52% decrease
same,"IL-6 gene expression, decrease (change rate)",[1],83% decrease
same,"PGC1α gene expression, increase (change rate)",[1],324% increase ^
same,"PPARγ2 gene expression, decrease (change rate)",[1],30% decrease
same,"SIRT1 gene expression, increase (change rate)",[1],36% increase^
same,"TNFα gene expression, decrease (change rate)",[1],75% decrease
same,"UCP1 gene expression, increase (change rate)",[1],905% increase ^
same,"UCP3 gene expression, increase (change rate)",[1],75% increase^
same,"aP2 gene expression, decrease (change rate)",[1],60% decrease
same,Olfr38 expression fold change to HFD group,[2],3.93
same,Olfr77 expression fold change to HFD group,[2],0.42
same,Olfr520 expression fold change to HFD group,[2],2.24
same,Olfr878 expression fold change to HFD group,[2],5.56
same,Olfr1462 expression fold change to HFD group,[2],0.49
same,"CREB phosphorylation, increase (change rate)",[3],29% increase
same,"HSL phosphorylation, increase (change rate)",[4],45% increase
same,"C/EBPα gene expression, decrease (change rate)",[5],8% decrease
same,"CPT1 gene expression, increase (change rate)",[5],44% increase^
same,"FAS gene expression, decrease (change rate)",[5],67% decrease
same,"IL-6 gene expression, decrease (change rate)",[5],71% decrease
same,"PPARγ2 gene expression, decrease (change rate)",[5],44% decrease
same,"TNFα gene expression, decrease (change rate)",[5],60% decrease
same,"aP2 gene expression, decrease (change rate)",[5],55% decrease
same,expression of olfactory receptor 38 increased,[6],more than 2 fold change
same,expression of olfactory receptor 77 decreased,[6],more than 2 fold change
same,expression of olfactory receptor 520 increased,[6],more than 2 fold change
same,expression of olfactory receptor 878 increased,[6],more than 2 fold change
same,expression of olfactory receptor 1462 decreased,[6],more than 2 fold change
same,"AKT phosphorylation, increase (change rate)",[7],47% increase
C/C=C1/[C@H](O[C@@H]2O[C@H](CO)[C@@H](O)[C@H](O)[C@H]2O)OC=C(C(=O)OC)[C@H]1CC(=O)OCCc1ccc(O)c(O)c1 [oleuropein],"C/EBPα gene expression, decrease (change rate)",[1],22% decrease
same,"CPT1 gene expression, increase (change rate)",[1],50% increase^
same,"FAS gene expression, decrease (change rate)",[1],65 decrease %
same,"IL-6 gene expression, decrease (change rate)",[1],78% decrease
same,"PGC1α gene expression, increase (change rate)",[1],210% increase ^
same,"PPARγ2 gene expression, decrease (change rate)",[1],35% decrease
same,"SIRT1 gene expression, increase (change rate)",[1],98% increase^
same,"TNFα gene expression, decrease (change rate)",[1],66% decrease
same,"UCP1 gene expression, increase (change rate)",[1],450% increase ^
same,"UCP3 gene expression, increase (change rate)",[1],82% increase^
same,"aP2 gene expression, decrease (change rate)",[1],26% decrease
same,Olfr290 expression fold change to HFD group,[8],2.32
same,Olfr341 expression fold change to HFD group,[8],0.3
same,Olfr495 expression fold change to HFD group,[8],0.21
same,Olfr520 expression fold change to HFD group,[8],2.08
same,Olfr907 expression fold change to HFD group,[8],0.49
same,Olfr971 expression fold change to HFD group,[8],2.37
same,Olfr1046 expression fold change to HFD group,[8],2.01
same,Olfr1104 expression fold change to HFD group,[8],4.39
same,Olfr1447 expression fold change to HFD group,[8],2.33
same,Olfr341 expression fold change to HFD group,[8]; listed as Oleuropein,0.30
same,Olfr38 expression fold change to HFD group,[2],2.35
same,Olfr275 expression fold change to HFD group,[2],2.49
same,Olfr1136 expression fold change to HFD group,[2],0.49
same,Olfr1204 expression fold change to HFD group,[2],2.21
same,Olfr1214 expression fold change to HFD group,[2],2.17
same,Olfr1317 expression fold change to HFD group,[2],2.89
same,"CREB phosphorylation, increase (change rate)",[3],60% increase
same,"HSL phosphorylation, increase (change rate)",[4],52% increase
same,"C/EBPα gene expression, decrease (change rate)",[5],16% decrease
same,"CPT1 gene expression, increase (change rate)",[5],33% increase^
same,"FAS gene expression, decrease (change rate)",[5],40% decrease
same,"IL-6 gene expression, decrease (change rate)",[5],62% decrease
same,"PPARγ2 gene expression, decrease (change rate)",[5],94% decrease
same,"TNFα gene expression, decrease (change rate)",[5],60% decrease
same,"aP2 gene expression, decrease (change rate)",[5],29% decrease
same,expression of olfactory receptor 38 increased,[6],more than 2 fold change
same,expression of olfactory receptor 275 increased,[6],more than 2 fold change
same,expression of olfactory receptor 290 increased,[6],more than 2 fold change
same,expression of olfactory receptor 341 decreased,[6],more than 2 fold change
same,expression of olfactory receptor 495 decreased,[6],more than 2 fold change
same,expression of olfactory receptor 520 increased,[6],more than 2 fold change
same,expression of olfactory receptor 907 decreased,[6],more than 2 fold change
same,expression of olfactory receptor 971 increased,[6],more than 2 fold change
same,expression of olfactory receptor 1046 increased,[6],more than 2 fold change
same,expression of olfactory receptor 1104 increased,[6],more than 2 fold change
same,expression of olfactory receptor 1136 decreased,[6],more than 2 fold change
same,expression of olfactory receptor 1204 increased,[6],more than 2 fold change
same,expression of olfactory receptor 1214 increased,[6],more than 2 fold change
same,expression of olfactory receptor 1317 increased,[6],more than 2 fold change
same,expression of olfactory receptor 1447 increased,[6],more than 2 fold change
same,"AKT phosphorylation, increase (change rate)",[7],59% increase
